# Measured values reported in patent US12490739B2, “Synergistically effective fungicide composition comprising choline phosphonate and at least one additional fungicide” (BELCHIM CROP PROTECTION NV, priority 2019, dated 2025).
# Columns and labels:
# Type in all cases: in vivo
# [1] = test system: Venturia inaequalis; experiment: Example 5 field trials, apple (Malus domestica var. Golden delicious) infected with scab; details: 60 g a.c./ha
# [2] = test system: Plasmopara viticola; experiment: Example 7 field trial, Vitis vinifera var. Merlot infected with downy mildew, France; details: 130 g a.c./ha
# [3] = test system: Plasmopara viticola; experiment: Example 6 field trials, Vitis vinifera infected with downy mildew; details: 120 g a.c./ha
# [4] = test system: Sphaerotheca fuliginea; experiment: Example 3 field trial, cucumber (Cucumis sativus var. Bosco) infected with powdery mildew, Italy; details: 2080 g a.c./ha
# [5] = test system: Podosphaera leucotricha; experiment: Example 13 field trials, apple (Malus domestica var. Gold Rush, var. Morgenduft Dallago) infected with powdery mildew; details: 2640 g a.c./ha
# [6] = test system: Uncinula necator; experiment: Example 12 field trial, Vitis vinifera var. Carignan infected with powdery mildew, France; details: 2320 g a.c./ha
structure (smiles),measurement,setting,value
"Cc1cc(OC(C)C)ccc1C(=O)C(C)(C)NC(=O)c1sccc1C [ISO, N-[1,1-dimethyl-2-(4-isopropoxy-o-tolyl)-2-oxoethyl]-3-methylthiophene-2-carboxamide]",ISO f.e. (%),"[1]; PESINC, location 1 (France), 6 DA-A4, BBCH 72",13.3%
same,ISO f.e. (%),"[1]; PESINC, location 2 (Italy), 4 DA-A11, BBCH 75",4.1%
same,ISO f.e. (%),"[1]; PESINC, location 2 (Italy), 6 DA-A9, BBCH 74",12.1%
same,ISO f.e. (%),"[1]; PESINC, location 2 (Italy), 6 DA-A13, BBCH 77",5.5%
same,ISO f.e. (%),"[1]; PESINC, location 2 (Italy), 7 DA-A6, BBCH 72",16.8%
same,ISO f.e. (%),"[1]; PESINC, location 3 (Belgium), 31 DA-A9, BBCH 73",8.7%
same,ISO f.e. (%),"[1]; PESINC, location 3 (Belgium), 80 DA-A9, BBCH 73",2.2%
same,ISO f.e. (%),"[1]; PESSEV, location 2 (Italy), 4 DA-A11, BBCH 75",22.6%
same,ISO f.e. (%),"[1]; PESSEV, location 2 (Italy), 6 DA-A9, BBCH 74",25.3%
same,ISO f.e. (%),"[1]; PESSEV, location 2 (Italy), 6 DA-A13, BBCH 77",27.7%
same,ISO f.e. (%),"[1]; PESSEV, location 2 (Italy), 7 DA-A6, BBCH 72",32.9%
"O=C(NCc1ncc(C(F)(F)F)cc1Cl)c1c(Cl)cccc1Cl [FLU, 2,6-dichloro-N-[[3-chloro-5-(trifluoromethyl)pyridin-2-yl]methyl]benzamide]",FLU f.e. (%),"[2]; PESINC, 50 bunches, 0 DA-A3, BBCH 73",84.4%
same,FLU f.e. (%),"[2]; PESINC, 50 bunches, 0 DA-A5, BBCH 77",37.5%
same,FLU f.e. (%),"[2]; PESINC, 50 bunches, 9 DA-A6, BBCH 83",14.5%
same,FLU f.e. (%),"[2]; PESINC, 100 leaves, 0 DA-A3, BBCH 73",62.3%
same,FLU f.e. (%),"[2]; PESINC, 100 leaves, 0 DA-A5, BBCH 77",47.8%
same,FLU f.e. (%),"[2]; PESINC, 100 leaves, 9 DA-A6, BBCH 83",32.2%
same,FLU f.e. (%),"[2]; PESSEV, 50 bunches, 0 DA-A5, BBCH 77",83.6%
same,FLU f.e. (%),"[2]; PESSEV, 50 bunches, 9 DA-A6, BBCH 83",46.8%
"CCC(C)(NC(=O)c1cc(Cl)c(C)c(Cl)c1)C(=O)CCl (racemic) [ZOX, (RS)-3,5-dichloro-N-(3-chloro-1-ethyl-1-methyl-2-oxopropyl)-ptoluamide]",ZOX f.e. (%),"[3]; PESINC, location 1 (France, Negrette), 50 bunches, 1 DA-A6, BBCH 69",73.0%
same,ZOX f.e. (%),"[3]; PESINC, location 1 (France, Negrette), 50 bunches, 1 DA-A8, BBCH 75",18.0%
same,ZOX f.e. (%),"[3]; PESINC, location 1 (France, Negrette), 50 bunches, 16 DA-A9, BBCH 81",1.0%
same,ZOX f.e. (%),"[3]; PESINC, location 2 (France, Grenache), 50 bunches, 9 DA-A4, BBCH 71",10.0%
same,ZOX f.e. (%),"[3]; PESINC, location 2 (France, Grenache), 50 bunches, 9 DA-A4, BBCH 77",0.0%
same,ZOX f.e. (%),"[3]; PESINC, location 2 (France, Grenache), 100 leaves, 6 DA-A5, BBCH 77",0.0%
same,ZOX f.e. (%),"[3]; PESINC, location 2 (France, Grenache), 100 leaves, 9 DA-A4, BBCH 71",22.8%
same,ZOX f.e. (%),"[3]; PESINC, location 3 (Germany, Mueller-Thurgau), 50 bunches, 11 DA-A4, BBCH 75",48.8%
same,ZOX f.e. (%),"[3]; PESINC, location 3 (Germany, Mueller-Thurgau), 100 leaves, 7 DA-A8, BBCH 83",16.0%
same,ZOX f.e. (%),"[3]; PESINC, location 3 (Germany, Mueller-Thurgau), 100 leaves, 13 DA-A6, BBCH 83",18.7%
same,ZOX f.e. (%),"[3]; PESSEV, location 1 (France, Negrette), 50 bunches, 1 DA-A8, BBCH 75",75.2%
same,ZOX f.e. (%),"[3]; PESSEV, location 1 (France, Negrette), 50 bunches, 16 DA-A9, BBCH 81",51.7%
same,ZOX f.e. (%),"[3]; PESSEV, location 2 (France, Grenache), 50 bunches, 8 DA-A5, BBCH 77",21.4%
same,ZOX f.e. (%),"[3]; PESSEV, location 2 (France, Grenache), 50 bunches, 9 DA-A4, BBCH 71",81.3%
same,ZOX f.e. (%),"[3]; PESSEV, location 2 (France, Grenache), 50 bunches, 9 DA-A6, BBCH 79",1.3%
same,ZOX f.e. (%),"[3]; PESSEV, location 2 (France, Grenache), 100 leaves, 6 DA-A5, BBCH 77",15.1%
same,ZOX f.e. (%),"[3]; PESSEV, location 2 (France, Grenache), 100 leaves, 9 DA-A4, BBCH 71",67.7%
same,ZOX f.e. (%),"[3]; PESSEV, location 3 (Germany, Mueller-Thurgau), 50 bunches, 7 DA-A8, BBCH 83",48.9%
same,ZOX f.e. (%),"[3]; PESSEV, location 3 (Germany, Mueller-Thurgau), 50 bunches, 11 DA-A4, BBCH 75",80.2%
same,ZOX f.e. (%),"[3]; PESSEV, location 3 (Germany, Mueller-Thurgau), 50 bunches, 13 DA-A6, BBCH 83",49.2%
same,ZOX f.e. (%),"[3]; PESSEV, location 3 (Germany, Mueller-Thurgau), 100 leaves, 13 DA-A6, BBCH 83",52.1%
"S1SSSSSSS1 [S, sulphur]",S f.e. (%),"[4]; PESINC curative, 7 DA-A2, BBCH 73",85.1%
same,S f.e. (%),"[4]; PESINC curative, 7 DA-A3, BBCH 76",87.5%
same,S f.e. (%),"[4]; PESINC curative, 7 DA-A4, BBCH 77",77.5%
same,S f.e. (%),"[4]; PESINC curative, 14 DA-A4, BBCH 78",58.9%
same,S f.e. (%),"[4]; PESINC, 7 DA-A2, BBCH 73",88.1%
same,S f.e. (%),"[4]; PESINC, 7 DA-A3, BBCH 76",95%
same,S f.e. (%),"[4]; PESINC, 7 DA-A4, BBCH 77",85.0%
same,S f.e. (%),"[4]; PESINC, 14 DA-A4, BBCH 78",75.2%
same,S f.e. (%),"[4]; PESINC, 21 DA-A4, BBCH 79",69.7%
same,S f.e. (%),"[4]; PESSEV curative, 7 DA-A2, BBCH 73",93.6%
same,S f.e. (%),"[4]; PESSEV curative, 7 DA-A3, BBCH 76",96%
same,S f.e. (%),"[4]; PESSEV curative, 7 DA-A4, BBCH 77",95%
same,S f.e. (%),"[4]; PESSEV curative, 14 DA-A4, BBCH 78",93.4%
same,S f.e. (%),"[4]; PESSEV, 7 DA-A2, BBCH 73",96.7%
same,S f.e. (%),"[4]; PESSEV, 7 DA-A4, BBCH 77",97.6%
same,S f.e. (%),"[4]; PESSEV, 14 DA-A4, BBCH 78",96.3%
same,S f.e. (%),"[4]; PESSEV, 21 DA-A4, BBCH 79",96.9%
same,S f.e. (%),"[5]; PESINC, location 1 (France), 20 shoots, 7 DA-A5, BBCH 71",80.0%
same,S f.e. (%),"[5]; PESINC, location 1 (France), 100 leaves, 5 DA-A8, BBCH 74",88.1%
same,S f.e. (%),"[5]; PESINC, location 1 (France), 100 leaves, 6 DA-A6, BBCH 74",59.1%
same,S f.e. (%),"[5]; PESINC, location 1 (France), 100 leaves, 15 DA-A8, BBCH 76",80.7%
same,S f.e. (%),"[5]; PESINC, location 2 (Italy), 5 leaves, 5 DA-A6, BBCH 74",63.9%
same,S f.e. (%),"[5]; PESINC, location 2 (Italy), 40 shoots, 2 DA-A10, BBCH 74",62.4%
same,S f.e. (%),"[5]; PESINC, location 2 (Italy), 40 shoots, 6 DA-A5, BBCH 71",57.8%
same,S f.e. (%),"[5]; PESINC, location 2 (Italy), 40 shoots, 6 DA-A11, BBCH 74",59.4%
same,S f.e. (%),"[5]; PESSEV, location 1 (France), 100 leaves, 6 DA-A6, BBCH 74",64.1%
same,S f.e. (%),"[5]; PESSEV, location 1 (France), 100 leaves, 15 DA-A8, BBCH 76",88.2%
same,S f.e. (%),"[5]; PESSEV, location 2 (Italy), 5 leaves, 2 DA-A10, BBCH 74",82.1%
same,S f.e. (%),"[5]; PESSEV, location 2 (Italy), 5 leaves, 5 DA-A6, BBCH 74",72.7%
same,S f.e. (%),"[5]; PESSEV, location 2 (Italy), 5 leaves, 6 DA-A11, BBCH 74",84.4%
same,S f.e. (%),"[6]; PESINC, 50 bunches, 14 DA-A3, BBCH 77",5.1%
same,S f.e. (%),"[6]; PESINC, 50 bunches, 14 DA-A3, BBCH 77, second listing (r34)",1.2%
same,S f.e. (%),"[6]; PESINC, 50 bunches, 14 DA-A5, BBCH 83",37.6%
same,S f.e. (%),"[6]; PESINC, 50 bunches, 14 DA-A5, BBCH 83, second listing (r36)",0%
same,S f.e. (%),"[6]; PESINC, 100 leaves, 14 DA-A3, BBCH 77",42.8%
same,S f.e. (%),"[6]; PESINC, 100 leaves, 14 DA-A3, BBCH 77, second listing (r32)",6.3%
same,S f.e. (%),"[6]; PESSEV, 50 bunches, 14 DA-A3, BBCH 77",50.8%
same,S f.e. (%),"[6]; PESSEV, 50 bunches, 14 DA-A3, BBCH 77, second listing (r28)",6.0%
same,S f.e. (%),"[6]; PESSEV, 50 bunches, 14 DA-A5, BBCH 83",14.2%
same,S f.e. (%),"[6]; PESSEV, 50 bunches, 14 DA-A5, BBCH 83, second listing (r30)",18.9%
same,S f.e. (%),"[6]; PESSEV, 100 leaves, 14 DA-A3, BBCH 77",18.7%
same,S f.e. (%),"[6]; PESSEV, 100 leaves, 14 DA-A3, BBCH 77, second listing (r26)",13.9%
